Experiment [1] deals with MRSA. Put plainly: antibacterial activity (MIC) by agar plate dilution method, MRSA strains. It counts as cell-based, methicillin-resistant Staphylococcus aureus. Conditions: Staphylococcus aureus, 20 h, MRSA (20 strains); for MIC50: read-out: MIC50; for MIC: MRSA, range over strains, read-out: MIC. Put shortly: (§1)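 Mueller-Hinton agar plates containing 2-fold serial β-lactam dilutions plus a fixed concentration of test sample; inoculum 10^6 CFU/ml, 37° C. for 20 hours. MIC read as concentration inhibiting growth; MIC80 and MIC50 = 80% and 50% growth inhibition. Flavones dissolved in methanol, others in 0.1 N NaOH.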

In experiment [2] the test system is MSSA. The experiment is described as follows: antibacterial activity (MIC) by agar plate dilution method, MSSA strains. Conditions: Staphylococcus aureus, 20 h, MSSA (7 strains); for MIC50: read-out: MIC50; for MIC: MSSA, range over strains, read-out: MIC. The format is cell-based, Methicillin-sensitive Staphylooccus aureus. Put shortly:
as §1

The subject of experiment [3] is MRSA or MSSA. Put plainly: inhibition of methicillin resistance by flavone derivatives, MRSA or MSSA. The format is cell-based, Staphylococcus aureus. The conditions noted are these: methicillin with flavone derivative, Table 4. Here is the method: (§2) The screening of the present invention may be carried out according to the agar plate dilution method designated by the Japan Society of Chemotherapy (Chemotherapy 29(1), 76-79 (1981)). Mueller-Hinton agar base semi-synthetic medium may be used for a plate culture medium for a sensitivity test together with an inoculating bacteria solution which may be prepared by culturing bacteria to be tested at 37° C. for 20 hours diluted with 8.5% by isotonic sodium chloride solution to 10^6 CFU/ml. Diluted β-lactam solutions are prepared by two times serial dilution. 1 ml of the diluted β-lactam solution and 1 ml of a predetermined concentration of a sample to be tested are added to 8 ml of the plate culture medium for a sensitivity test. […]
(§3) Mueller-Hinton agar base semi-synthetic medium was used as a plate culture medium for the sensitivity test, and an inoculating bacteria solution was prepared by culturing bacteria to be tested at 37° C. for 20 hours and diluting with 8.5% by weight isotonic sodium chloride solution to a final concentration of 10^6 CFU/ml. […] To the resultant plate culture medium for the sensitivity test, the inoculating bacteria were inoculated using a microplanter (SAKUMASEISAKUSYO Co.), cultured for 20 hours at 37° C. and then minimum inhibition concentration (MIC) was assessed.

For experiment [4], the system named is MRSA. Put plainly: antibacterial activity of antibiotics alone and in the presence of apigenin (4 μg/ml), MRSA. It counts as cell-based, methicillin-resistant Staphylococcus aureus. The conditions noted are these: for MIC50: MRSA. Put shortly: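 MICs were determined by agar plate dilution on Mueller-Hinton medium with two-fold serial antibiotic dilutions, alone or together with apigenin at 4 μg/ml. The MRSA inoculum was 10^6 CFU/ml. Plates were incubated at 37 °C for 20 h.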

The test system of experiment [5] is MRSA. The experiment is described as follows: antibacterial activity of methicillin in the presence of flavone derivatives, MRSA. It counts as cell-based, methicillin-resistant Staphylococcus aureus. Here is the method:
as §2, §3

The test system of experiment [6] is MSSA. Put plainly: antibacterial activity of methicillin in the presence of flavone derivatives, MSSA. It counts as cell-based, Methicillin-sensitive Staphylooccus aureus. Conditions: Staphylococcus aureus, 20 h; methicillin alone; MSSA (7 strains). Here is the method: as §2, §3
For experiment [7], the system named is MRSA No. 5. Put plainly: effect of flavone on antibacterial activity of antibiotics against MRSA No. 5 in bouillon (broth microdilution). The format is cell-based, methicillin-resistant Staphylococcus aureus. The conditions noted are these: for MIC: Staphylococcus aureus, MRSA, 20 h, read-out: MIC. Here is the method: Alternatively, the screening of the present invention may be carried out according to the broth microdilution method designated by the Japan Society of Chemotherapy (Chemotherapy 38(1), 102-105 (1990)). Muellar-Hinton broth is used as a culture medium for the sensitivity test, and 50 mg/ml of calcium(Ca) ion, 25 mg/ml of magnesium(Mg) ion, and 2% sodium chloride (NaCl) are added thereto. An inoculating bacteria solution may be prepared by culturing bacteria to be tested in Mueller-Hinton broth at 37° C. for 20 hours and diluting with Mueller-Hinton broth to 10^5 CFU/ml final concentration of inoculating bacteria. Diluted β-lactam solution is prepared by two times serial dilution series. 10 μl of the diluted β-lactam solution and 10 μl of a predetermined concentration of a sample of bacteria to be tested are added to mix with 80 μl of the culture medium for the sensitivity test. To the resultant plate culture medium for sensitivity test, the inoculating bacteria are added and culturing is carried out for 20 hours at 37° C. and then assessment for a minimum inhibition concentration (MIC) is carried out. A minimum inhibition concentration means the minimum concentration of β-lactam at which growth of bacteria is not recognized by the naked eye.
(G) Antibacterial activity of 6 β-lactams, that is, cephalothin, cefuroxime, cefotaxime, cefoxitin, streptomycin and vancomycin, against MRSA in the presence of 0.5 mM flavone was studied in bouillon.
Muellar-Hinton broth was used as a culture medium for the sensitivity test, and 50 mg/ml of calcium (Ca) ion, 25 mg/ml of maqnesium (Mg) ion, 2% sodium chloride (NaCl) were added thereto. An inoculating bacteria solution was prepared by culturing bacteria to be tested with Mueller-Hinton broth at 37° C. for 20 hours and diluting with Mueller-Hinton broth to 10^5 CFU/ml final concentration of inoculating bacteria. Diluted β-lactam solutions were prepared in two times serial dilutions starting from 10 mM. Ten microliters of the diluted β-lactam solution and 10 μl of 5 mM of flavone were mixed with 80 μl of the culture medium for the sensitivity test in a microplate having U-shaped wells and samples of bacteria to be tested were added thereto. The mixture was cultured 20 hours at 37° C. and then assessed for minimum inhibition concentration (MIC). Minimum inhibition concentration means minimum concentration of a β-lactum at which growth of bacteria is inhibited to the extent that bacteria is not recognized by the naked eye.
A general note: Broth dilution looks for growth in wells or tubes with falling amounts of substance.

Experiment [8] concerns MRSA No. 5. The description is as above. It counts as cell-based, methicillin-resistant Staphylococcus aureus. Conditions: for MIC: Staphylococcus aureus, MRSA, 20 h, read-out: antibacterial activity of methicillin against MRSA No. 5.

In brackets after ≈: the same amount, converted by molar mass. Where two headings read alike, the source gives them in different places.

On to `O=C1c2c(O)cc(O)cc2O[C@H](c2ccc(O)c(O)c2)[C@H]1O` [(+)-Taxifolin, (+)-taxifolin], for which, in experiment [1], the MIC50 (usually the lowest concentration that inhibits either 50% of growth or 50% of the strains tested, depending on the study) is > 250 µg/mL and the MIC is > 250 µg/mL. In experiment [2], the MIC50 was > 250 µg/mL and the MIC was > 250 µg/mL. Also, the “inhibition of resistance to methicillin (in words)” value in experiment [3] is given as “inhibited resistance to methicillin”.

On to `O=c1cc(-c2ccccc2)oc2ccccc12` [Flavone, flavone], for which, in experiment [1], the MIC50 is > 250 µg/mL and the MIC is > 250 µg/mL. In experiment [2], the MIC50 was > 250 µg/mL and the MIC was > 250 µg/mL. Besides, the “inhibition of resistance to methicillin (in words)” value in experiment [3] is “inhibited the most strongly”.

As for `COc1cccc(OC)c1C(=O)N[C@@H]1C(=O)N2[C@@H]1SC(C)(C)[C@@H]2C(=O)O` [Methicillin, methicillin], the MIC50 in experiment [4] (Antibiotics alone) was > 250 µg/mL; in experiment [4] (Antibiotics alone, listed as methicillin), 1000 µg/mL; in experiment [4] (Staphylococcus aureus, 20 h, antibiotic with Apigenin (4 μg/ml), read-out: MIC50), 15.6 µg/mL; in experiment [5] (Staphylococcus aureus, 20 h, methicillin alone, MRSA (20 strains)), > 250 µg/mL; in experiment [6], 2 µg/mL. Further, the “times as potent as methicillin alone” value in experiment [4] (MIC50, methicillin plus 4 μg/ml apigenin vs methicillin alone) is given as “about 700 times”. Further, the “inhibition of β-lactam resistant MRSA / improvement of antibacterial effect with apigenin (in words)” value in experiment [4] (apigenin 4 μg/ml or less than its MIC) was “inhibited β-lactam resistant MRSA”. Also, in experiment [5] (under the presence of flavone), the “antibacterial activity of methicillin on MRSA No.5 (in words)” value was “strong on MRSA No.5”. In addition, the MIC in experiment [6] was 0.98 to 2 µg/mL; in experiment [7] (Concentration of flavone 0 mM), 1000 µM (≈ 380 µg/mL); in experiment [7] (Concentration of flavone 0.5 mM) it was 15.6 µM (≈ 5.93 µg/mL); in experiment [8] (Control (no flavone)), > 1000 µM; in experiment [8] (flavone 0.11 mM (25 μg/ml)) it was 1000 µM (≈ 380 µg/mL); in experiment [8] (flavone 0.2 mM), 31.2 µM (≈ 11.9 µg/mL). Moreover, the figures for the MIC in experiment [8] (flavone 0.23 mM (50 μg/ml)) and in experiment [8] (flavone 0.5 mM) were 31.2 µM (≈ 11.9 µg/mL) and 15.6 µM (≈ 5.93 µg/mL), respectively. Further, the “inhibitory effect on resistance of MRSA No.5 (in words)” value in experiment [7] (in the presence of flavone 0.5 mM) is “showed inhibitory effect on resistance of MRSA No.5”. Also, the “antibacterial activity of methicillin against MRSA (in words)” value in experiment [8] (flavone 0.2 mM) is “prominently shown”; in experiment [8] (in proportion to increase of flavone concentration), “increased”.

Source of the values: patent publication US6294526A, “Use of flavone derivatives for induction of β-lactam-sensitivity of MRSA” (priority 1998, dated 2001).
